The text below walks through data of publication PMC11401910, “Dual client binding sites in the ATP-independent chaperone SurA” (Nature Communications, 2024).

A word on the Kd: it is the constant that tells how readily two partners part at equilibrium.

“Also recorded” adds a separate entry of the source. Like-named read-outs stand apart in the source and are kept apart here.

Assay [1] concerns the target T1, SurA-WT (Escherichia coli, UniProt P0ABZ6). In kind it is binding. Set-up: made in house; host or cells: E. coli BL21(DE3). How it is done:
All NMR experiments were performed on a 950-MHz Bruker Ascend Avance III HD NMR spectrometer equipped with either a Bruker 3 mm TCI or 5 mm TXO triple-resonance cryogenically cooled probe. Peptide binding experiments were performed in 5 mM EDTA, 20 mM Tris-HCl, pH 8.0 with 5 % (v/v) D2O at 25 °C. Binding experiments using full-length OMP sequences also contained 0.8 M urea. Data was acquired for ~16 h with the exception of OMP-containing experiments which were acquired for ~5 h. […] (2D ^1H-^13C SOFAST-HMQC)[70]. […] Errors in the intensity ratios for each peak between two spectra were obtained by propagating the errors according to:1 δR=R*δX/X+δY/Y where δR is the error in the intensity ratio, |R| is the value of the intensity ratio, X and Y are the intensity values for the peak in the first and second spectrum, respectively, and δX and δY are the noise floor values for the first and second spectrum, respectively.
Z-scores for intensity ratio and CSP data were calculated using:3 Zi=xi−μ/σ where xi is the value for a particular peak, and µ and σ are the mean and standard deviation for all peaks, respectively.
For assignment of SurA-WT Ile and Met residues (43 in total) each residue was individually mutated (Supplementary Table 3), and the effect of the mutation assessed by methyl-TROSY NMR. Samples contained 5–70 µM SurA variant. Assignment experiments (2D ^1H-^13C SOFAST-HMQCs) for Ile or Met variants were performed in 20 mM sodium phosphate, 50 mM NaCl, pH 7.5 (at 35 °C), or 20 mM Tris-HCl, pH 8 (at 25 °C), respectively. […] The ^1H chemical shift assignments were referenced using 2,2-dimethyl-2-silapentane-5-sulphonic acid (DSS) at 25 °C as a standard. The ^13C chemical shifts were referenced indirectly to DSS. NMR assignments have been deposited in the Biological Magnetic Resonance Bank (BMRB) with Entry ID 52180.

A further assay deals with SurA. The following applies: read-out: Kd, binding of peptide to SurA; cited from earlier work. An excerpt: (where Ar is an aromatic residue and X is any amino acid), or aromatic-enriched sequences containing an Ar-X-Ar-X-Pro motif. […] Both of these types of peak changes (shifts and/or broadening), can report on binding or conformational changes caused by binding at the location of the corresponding ^13CH3 probe[73],[74].

In assay [2] the target is T1, SurA-WT. To be noted: pH 8. The text has this:
(1 picture or pasted object on this page, not shown here)
Source data are provided as a Source Data file.

[3] abbreviates: 5 µM SurA-WT, 200 µM peptide (SVD and WEYIPNV 50 µM), 5 mM EDTA, 20 mM Tris-HCl pH 8, 25 °C.

T1 sequence (P0ABZ6 other isoform, or with tags, fused parts or gaps): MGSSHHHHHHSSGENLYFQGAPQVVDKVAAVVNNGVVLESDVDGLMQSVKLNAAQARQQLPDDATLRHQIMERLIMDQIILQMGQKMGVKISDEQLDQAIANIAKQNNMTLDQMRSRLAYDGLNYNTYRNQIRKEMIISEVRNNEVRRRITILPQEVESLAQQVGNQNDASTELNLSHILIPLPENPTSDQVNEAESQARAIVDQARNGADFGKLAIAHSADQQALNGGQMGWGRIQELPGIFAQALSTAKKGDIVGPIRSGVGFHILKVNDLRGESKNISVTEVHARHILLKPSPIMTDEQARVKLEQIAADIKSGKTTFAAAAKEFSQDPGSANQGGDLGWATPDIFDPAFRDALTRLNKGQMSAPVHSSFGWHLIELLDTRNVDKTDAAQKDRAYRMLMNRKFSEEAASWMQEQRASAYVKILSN

With `CSCC[C@H](NC(=O)[C@H](CCCCN)NC(=O)[C@H](CC(N)=O)NC(=O)[C@H](CCSC)NC(=O)[C@H](CCC(N)=O)NC(C)=O)C(=O)NCC(=O)NCC(=O)N[C@@H](Cc1ccccc1)C(=O)N[C@@H](CC(N)=O)C(=O)N[C@@H](CC(C)C)C(=O)N[C@@H](CCCCN)C(=O)N[C@@H](Cc1ccc(O)cc1)C(=O)N[C@@H](CCCNC(=N)N)C(=O)N[C@@H](Cc1ccc(O)cc1)C(=O)N[C@@H](CCC(=O)O)C(N)=O` [QMN], at SurA-WT [1] (setting [3]), the “Interaction of peptide with SurA-WT binding sites (core, P1) by methyl-TROSY NMR, in words” value (shortened to “Interaction of peptide”) is on record as “also affect the peak for M231 in the P1 domain; also recorded: binding results in conformational changes associated with core-P1 opening”.

Turning to Ac-KHDTSDYGFSYGAGL-NH2 [KHD], the “Interaction of peptide” value at SurA-WT [1] (setting [3]) is listed as “also affect the peak for M231 in the P1 domain”.

Turning to “NLKYRYE [QMN^C-term, C-terminal seven residues of QMN]”, at SurA-WT [1] (pH 8), the “Interaction of peptide” value is reported as “demonstrated binding at the core site, but with binding largely abolished at the P1 site”.

As to WEYIPNV [reference compound], at SurA-WT [1] (pH 8), the “Interaction of peptide” value is “severe broadening of the resonance for M231; also recorded: substantial CSPs in the P1 domain”. At SurA, the Kd was 1 to 14 µM. Also, the “Affinity of peptide for SurA-WT by ITC (in words)” value on SurA-WT [2] is listed as “consistent with literature values”.
